One test has as its system gastric secretion. Description: Inhibition of gastric secretion (pylorus ligation, Shay method). Type of test: in vivo, Male Sprague-Dawley rats. The settings on record: 20 mg/kg intraduodenally, 5 hours; for Rel. Conc.: acid concentration relative to omeprazole; for Relative Acid Output: acid output relative to omeprazole; for Rel. Vol.: gastric juice volume relative to omeprazole. The method, boiled down:
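Rats under ether anaesthesia had the pylorus ligated, and the stomach was removed 5 h later. Gastric juice was centrifuged at 1,000 g, and its volume and acidity were measured. Relative volume, relative acid concentration and relative acid output […] were then calculated.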

The next test relates to H^+ /K^+ -ATPase. The test can be described thus: Reversibility Test (Dilution and Washout method, gastric vesicles). The test is classed as biochemical. The settings on record: compound 50 μM. Here is the method:
Test 3. Reversibility Test
Gastric vesicles were prepared by the same method as in Experiment 4-1 of WO 94/14795. The inhibition mechanism of proton pump activity by the present invention compound was tested in accordance with the so-called Dilution and Washout method [see e.g., D. J. Keeling, et al., Biochemical Pharmacology, 42(1), 123-130(1991)].
Namely, test tubes were divided into two group, Groups 1 and 2. Each group was divided into four subgroups. 90 μl of 5 mM Pipes/Tris buffer(pH 7.4) and 10 μl of DMSO were added to subgroups 1 and 2 of each group. 90 μl of 5 mM Pipes/Tris buffer(pH 7.4) and 10 μl of the compound prepared in Example 43(50 μM) were added to subgroups 3 and 4 of each group. To all two groups, was added 100 μl of lyophilized vesicles at the concentration of 100 μg protein/ml and then preincubated at 37° C. for 15 minutes.
2 mM MgCl2 was added to subgroups 1 and 3 of Group 1. 2 mM MgCl2 and 10 mM KCl were added to subgroups 2 and 4 of Group 1. 3 mM ATP was added to all subgroups of Group 1 until the final volume became 500 μl. After incubation for 30 minutes, the inhibition of H^+ /K^+ -ATPase activity by the test compound was measured.
After preincubation as described above, each subgroup of Group 2 was diluted with 50-fold volume of 5 mM Pipes/Tris buffer(pH7.4) and then centrifuged for 60 minutes by means of Beckman ultracentrifuge(Model L8-80). The supernatant was discarded and washed out by 10 ml of 5 mM Pipes/Tris buffer(ph 7.4). The resulting pellet was suspended with 5 mM Pipes/Tris buffer (pH7.4) until the volume became the same as the preincubation volume.
Thereafter, in accordance with the treatment to Group 1, each subgroup of Group 2 was treated with 2 mM MgCl2, 10 mM KCl and 3 mM ATP. And the final volume of each subgroup of Group 2 was made to be 500 μl.
And it was further measured in accordance with the same procedures as above, except the compound prepared in Example 75 was used as a test compound.

Test [1] addresses proton pump(H^+ /K^+ ATPase). Description: Inhibition of proton pump(H^+ /K^+ ATPase) activity. The test is classed as biochemical. Conditions: pH 6.0, 37° C., 30 minutes preincubation and 30 minutes reaction; read-out: IC50 Test compound. An outline of the steps:
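Enzyme was preincubated with compound at five concentrations for 30 min at 37° C in Tris-HCl pH 6.0 with Mg2+, K+ and NH4Cl. Reaction ran 30 min at 37° C with ATP and was stopped with trichloroacetic acid. K+-stimulated inorganic phosphate release gave IC50 by Litchfield-Wilcoxon.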

The next test deals with proton pump. The settings on record: in words, background; cited from earlier work.

As to `Cc1nc(N(C)c2ccccc2)nc(N2CCc3ccccc3C2)c1C.Cl` [Example 43, 5,6-dimethyl-2-(N-methylphenylamino)-4-(1,2,3,4-tetrahydroisoquinolin-2-yl)pyrimidine hydrochloride], in the test with gastric secretion, the Rel. Conc. came to 0.59, the “Relative Acid Output” value turned out to be 0.82 and the Rel. Vol. is 0.7. Moreover, in the test on H^+ /K^+ -ATPase, the “inhibition of H^+ /K^+ ATPase activity, after Dilution & Washout” value came to 6% and the “inhibition of H^+ /K^+ ATPase activity, before Dilution & Washout” value came to 62%. For the same compound, the IC50 in test [1] was 0.5 µM.
For the compound `Cc1nc(N2CCc3ccccc3C2)nc(Nc2ccc(F)cc2)c1C.Cl` [Example 75, 5,6-dimethyl-4-(4-fluorophenylamino)-2-(1,2,3,4-tetrahydroisoquinolin-2-yl)pyrimidine hydrochloride], in the test on gastric secretion, the Rel. Conc. came to 1.62, the “Relative Acid Output” value is listed as 1.20 and the Rel. Vol. was 1.3. In the test with H^+ /K^+ -ATPase, the “inhibition of H^+ /K^+ ATPase activity, after Dilution & Washout” value was 15% and the “inhibition of H^+ /K^+ ATPase activity, before Dilution & Washout” value came to 66.6%. For the same compound, in test [1], the half-maximal inhibitory concentration (IC50) worked out at 1.2 µM.
In the case of `Cc1cc(F)ccc1Nc1nc(N2CCc3ccccc3C2C)nc2c1CCCC2.Cl` (stereo not drawn) [Example 82, 4-(2-Methyl-4-fluorophenylamino)-2-(1-methyl-1,2,3,4-tetrahydroisoquinolin-2-yl)-5,6,7,8-tetrahydroquinazoline hydrochloride], in the test with gastric secretion, the Rel. Conc. came to 0.59, the “Relative Acid Output” value was found to be 0.79 and the Rel. Vol. came to 0.69. Moreover, the 50% inhibitory concentration (IC50) in test [1] is 1.1 µM.
For `Cc1cc(F)ccc1Nc1nc(N2CCc3ccccc3C2)nc2c1CCCC2.Cl` [Example 83, 4-(2-methyl-4-fluorophenylamino)-2-(1,2,3,4-tetrahydroisoquinolin-2-yl)-5,6,7,8-tetrahydroquinazoline hydrochloride] the same measures were 1.29, 1.13, 1.19 and 1.4 µM.
Regarding `COc1ccc2[nH]c([S+]([O-])Cc3ncc(C)c(OC)c3C)nc2c1` (stereo not drawn) [Omeprazole, omeprazole, reference compound], in the test on proton pump, the “reversibility of proton pump inhibition” value is given as “irreversible”.

For orientation: IC50 means the midpoint of a concentration-inhibition curve.

The record behind these values is patent publication US5750531A, “Pyrimidine derivatives and processes for the preparation thereof” (Yuhan Corporation, priority 1994, dated 1998).
